Experimental data reported in ChEMBL document CHEMBL5370660, “Design of a Supersoft Topical JAK Inhibitor, Which Is Effective in Human Skin but Rapidly Deactivated in Blood” (J Med Chem, 2023).

Experiments:
[1] = Saturation solubility of compound in PEG400/transcutol/benzyl alcohol/water mixture using crystalline form of sample; assay type: physicochemical
[2] = biological target: T1, Mitogen-activated protein kinase kinase kinase 2 (Homo sapiens, UniProt Q9Y2U5); assay: Inhibition of MAP3K2 (unknown origin)
T1 sequence (Q9Y2U5 whole entry): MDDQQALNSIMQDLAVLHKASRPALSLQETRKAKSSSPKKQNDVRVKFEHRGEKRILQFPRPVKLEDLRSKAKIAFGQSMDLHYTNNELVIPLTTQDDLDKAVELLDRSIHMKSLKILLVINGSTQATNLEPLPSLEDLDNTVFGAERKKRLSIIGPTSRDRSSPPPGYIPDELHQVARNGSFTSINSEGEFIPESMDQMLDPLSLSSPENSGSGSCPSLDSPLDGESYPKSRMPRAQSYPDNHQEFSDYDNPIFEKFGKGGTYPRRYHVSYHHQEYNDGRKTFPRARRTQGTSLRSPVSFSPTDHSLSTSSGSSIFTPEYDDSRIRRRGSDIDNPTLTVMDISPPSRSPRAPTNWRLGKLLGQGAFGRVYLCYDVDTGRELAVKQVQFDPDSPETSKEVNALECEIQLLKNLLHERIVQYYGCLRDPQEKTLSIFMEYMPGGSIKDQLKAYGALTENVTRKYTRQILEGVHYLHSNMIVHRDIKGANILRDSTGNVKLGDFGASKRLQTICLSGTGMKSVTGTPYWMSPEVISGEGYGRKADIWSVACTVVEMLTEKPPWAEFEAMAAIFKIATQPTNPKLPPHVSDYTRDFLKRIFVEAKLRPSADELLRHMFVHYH

[3] = Lipophilicity, LogD of compound; assay type: physicochemical; details: octanol/water
[4] = biological target: JAK3/JAK1 (Homo sapiens, UniProt P23458+P52333); assay: Inhibition of JAK1/3-mediated STAT5 phosphorylation in human whole blood incubated for 30 mins followed by IL-2 addition measured after 15 mins by flow cytometry; assay type: tissue-based
[5] = Stability of compound in fresh human skin explant using Franz diffusion cell model assessed as compound concentration in dermis at 3 % administered topically preincubated overnight followed by fresh media replacement in receiver fluid without compound and subsequently stimulated with IL-4/IL-13 measured after 40 hrs by LC-MS/MS analysis; assay type: ADME, tissue-based, Skin of body; details: topical or ocular, read-out: Ct
[6] = Metabolic stability in human skin S9 fraction measured upto 120 mins by LC-MS analysis; assay type: ADME, subcellular
[7] = biological target: Tyrosine-protein kinase JAK1 (Homo sapiens, UniProt P23458); assay: Inhibition of GST-fused JAK1 (866 to 1154 residues)(unknown origin) using FITC-Ahr-KKSRGDYMTMQIG-NH2 peptide as substrate incubated for 30 mins in presence of ATP by caliper microfluidic mobility shift assay
[8] = biological target: Tyrosine-protein kinase JAK2 (Homo sapiens, UniProt O60674); assay: Inhibition of GST-fused JAK2 (808 to 1132 residues)(unknown origin) using Carboxyfluorescein-Ahx-GGEEEEYFELVKKKK peptide as substrate incubated for 30 mins in presence of ATP by caliper microfluidic mobility shift assay
[9] = Drug penetration in fresh human skin explant using Franz diffusion cell model assessed as concentration of 2-(6-((5-carbamoyl-4-((2-methoxyphenyl)amino)pyridin-2-yl)amino)pyridin-3-yl)acetic acid metabolite in receiver fluid at 3 % administered topically preincubated overnight followed by fresh media replacement in receiver fluid without compound and subsequently stimulated with IL-4/IL-13 measured after 24 hrs by LC-MS/MS analysis; assay type: ADME, tissue-based, Skin of body; details: topical_or_ocular

JAK3/JAK1, sequence (P52333 whole entry, the tested form may be a part): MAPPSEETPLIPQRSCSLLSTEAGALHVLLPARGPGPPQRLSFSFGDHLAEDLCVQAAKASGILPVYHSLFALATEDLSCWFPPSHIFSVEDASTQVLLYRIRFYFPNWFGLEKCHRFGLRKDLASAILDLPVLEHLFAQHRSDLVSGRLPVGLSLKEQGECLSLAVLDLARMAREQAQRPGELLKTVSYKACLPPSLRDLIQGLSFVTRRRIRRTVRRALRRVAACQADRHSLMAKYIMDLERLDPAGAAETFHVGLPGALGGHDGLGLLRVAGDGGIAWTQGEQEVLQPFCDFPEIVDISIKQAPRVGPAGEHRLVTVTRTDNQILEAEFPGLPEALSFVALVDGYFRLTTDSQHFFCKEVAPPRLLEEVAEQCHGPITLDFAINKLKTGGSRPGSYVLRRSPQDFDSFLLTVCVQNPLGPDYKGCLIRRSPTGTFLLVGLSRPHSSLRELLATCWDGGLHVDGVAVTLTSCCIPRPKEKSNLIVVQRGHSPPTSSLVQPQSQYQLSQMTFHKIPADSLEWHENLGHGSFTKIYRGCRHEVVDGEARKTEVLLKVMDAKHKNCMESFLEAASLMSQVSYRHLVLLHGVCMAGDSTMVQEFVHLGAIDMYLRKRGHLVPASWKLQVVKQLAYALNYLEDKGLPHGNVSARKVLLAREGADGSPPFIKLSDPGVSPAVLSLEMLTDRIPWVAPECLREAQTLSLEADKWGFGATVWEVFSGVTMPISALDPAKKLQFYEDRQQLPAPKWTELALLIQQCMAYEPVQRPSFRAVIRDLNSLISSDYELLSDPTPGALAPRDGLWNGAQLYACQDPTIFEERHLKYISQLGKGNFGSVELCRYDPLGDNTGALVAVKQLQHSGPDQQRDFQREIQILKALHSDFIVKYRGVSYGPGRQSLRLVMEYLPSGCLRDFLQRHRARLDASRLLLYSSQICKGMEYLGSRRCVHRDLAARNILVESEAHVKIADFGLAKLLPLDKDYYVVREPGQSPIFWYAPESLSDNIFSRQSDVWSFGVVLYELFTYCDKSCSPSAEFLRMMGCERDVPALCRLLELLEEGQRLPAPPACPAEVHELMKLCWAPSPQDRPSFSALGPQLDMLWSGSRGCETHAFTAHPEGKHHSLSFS
JAK3/JAK1, sequence (P23458 whole entry, the tested form may be a part): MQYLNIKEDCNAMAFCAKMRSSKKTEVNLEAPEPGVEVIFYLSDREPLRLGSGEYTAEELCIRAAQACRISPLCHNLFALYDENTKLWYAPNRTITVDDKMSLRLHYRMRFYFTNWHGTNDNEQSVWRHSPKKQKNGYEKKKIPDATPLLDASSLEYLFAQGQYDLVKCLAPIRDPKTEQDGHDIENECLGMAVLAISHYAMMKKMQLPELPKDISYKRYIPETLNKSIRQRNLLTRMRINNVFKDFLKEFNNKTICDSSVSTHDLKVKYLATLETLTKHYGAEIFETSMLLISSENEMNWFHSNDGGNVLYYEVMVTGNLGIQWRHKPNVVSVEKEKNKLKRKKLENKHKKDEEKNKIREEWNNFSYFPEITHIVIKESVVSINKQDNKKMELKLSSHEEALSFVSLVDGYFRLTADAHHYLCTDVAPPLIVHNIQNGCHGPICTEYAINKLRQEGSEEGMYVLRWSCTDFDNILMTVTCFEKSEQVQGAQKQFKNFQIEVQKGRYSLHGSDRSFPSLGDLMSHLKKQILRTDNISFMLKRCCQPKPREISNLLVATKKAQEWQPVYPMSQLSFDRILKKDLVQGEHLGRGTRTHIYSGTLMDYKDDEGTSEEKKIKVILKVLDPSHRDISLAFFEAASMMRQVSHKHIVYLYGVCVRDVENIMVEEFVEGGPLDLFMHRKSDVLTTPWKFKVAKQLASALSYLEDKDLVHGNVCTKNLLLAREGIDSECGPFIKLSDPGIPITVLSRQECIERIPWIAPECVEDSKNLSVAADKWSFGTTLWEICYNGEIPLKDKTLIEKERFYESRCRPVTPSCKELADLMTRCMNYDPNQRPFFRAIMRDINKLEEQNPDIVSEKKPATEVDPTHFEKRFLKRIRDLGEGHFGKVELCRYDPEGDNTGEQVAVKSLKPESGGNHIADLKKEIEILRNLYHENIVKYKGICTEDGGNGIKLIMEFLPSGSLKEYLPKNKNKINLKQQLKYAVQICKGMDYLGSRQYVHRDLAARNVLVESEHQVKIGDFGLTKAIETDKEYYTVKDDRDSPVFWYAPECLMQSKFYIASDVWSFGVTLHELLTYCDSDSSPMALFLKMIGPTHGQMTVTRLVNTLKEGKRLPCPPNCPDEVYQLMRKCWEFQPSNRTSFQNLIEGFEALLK
Tyrosine-protein kinase JAK2, sequence (O60674 whole entry, the tested form may be a part): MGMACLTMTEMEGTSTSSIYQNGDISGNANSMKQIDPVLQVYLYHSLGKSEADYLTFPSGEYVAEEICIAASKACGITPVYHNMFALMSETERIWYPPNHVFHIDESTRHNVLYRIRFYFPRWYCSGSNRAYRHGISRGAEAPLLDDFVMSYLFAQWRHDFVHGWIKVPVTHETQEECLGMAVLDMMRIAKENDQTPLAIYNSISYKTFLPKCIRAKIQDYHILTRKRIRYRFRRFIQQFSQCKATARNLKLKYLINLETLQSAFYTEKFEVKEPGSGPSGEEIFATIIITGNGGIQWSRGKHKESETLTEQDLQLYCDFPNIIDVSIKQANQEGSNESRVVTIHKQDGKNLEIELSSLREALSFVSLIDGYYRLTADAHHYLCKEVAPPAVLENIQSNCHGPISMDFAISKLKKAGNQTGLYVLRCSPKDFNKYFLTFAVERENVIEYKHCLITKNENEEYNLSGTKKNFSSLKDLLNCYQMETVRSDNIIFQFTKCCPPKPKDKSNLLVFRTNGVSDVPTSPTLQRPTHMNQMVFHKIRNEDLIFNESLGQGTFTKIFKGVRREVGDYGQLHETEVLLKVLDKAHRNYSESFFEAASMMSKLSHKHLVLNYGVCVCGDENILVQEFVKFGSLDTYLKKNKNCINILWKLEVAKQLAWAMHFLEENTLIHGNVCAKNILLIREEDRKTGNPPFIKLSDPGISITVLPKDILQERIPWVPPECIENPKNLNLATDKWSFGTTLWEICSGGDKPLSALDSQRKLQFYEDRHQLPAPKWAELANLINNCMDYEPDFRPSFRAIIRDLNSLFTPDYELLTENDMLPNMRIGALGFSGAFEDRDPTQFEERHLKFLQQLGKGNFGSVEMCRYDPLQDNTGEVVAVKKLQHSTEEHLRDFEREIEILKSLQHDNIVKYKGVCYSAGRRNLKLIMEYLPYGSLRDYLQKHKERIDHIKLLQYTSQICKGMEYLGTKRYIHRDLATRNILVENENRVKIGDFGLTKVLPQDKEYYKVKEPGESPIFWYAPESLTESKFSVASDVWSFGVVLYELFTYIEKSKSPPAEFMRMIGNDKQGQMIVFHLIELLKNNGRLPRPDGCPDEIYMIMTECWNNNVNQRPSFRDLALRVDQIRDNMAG
Tyrosine-protein kinase JAK1, sequence (P23458 whole entry, the tested form may be a part): as the sequence (P23458 whole entry, the tested form may be a part) above

**Q.** Which results are given for `COC[C@@H](C)OC(=O)Cc1ccc(Nc2cc(Nc3ccccc3OC)c(C(N)=O)cn2)nc1`?
**A.** solubility thermodynamic [1]: > 18 mg/mL; IC50 [2]: < 100 nM; logD [3]: 3.3; IC50 [4]: 14800 nM; concentration at 40 h, 3 % [5]: 59 µM; half-life [6]: 42 min; IC50 [7]: 5 nM; IC50 [8]: 5 nM; Drug uptake [9]: 0.223 µM
